≈ marks a conversion by molar mass, not a printed value.
How the values were obtained:
Format in all cases: functional
Staphylococcus aureus [1] = assay: Antibacterial activity against Staphylococcus aureus KCTC 4220 after 24 hrs by two-fold serial dilution method; conditions: KCTC 4220, 24 h
Staphylococcus aureus [2] = assay: Antibacterial activity against quinolone-resistant Staphylococcus aureus CCARM 3519 after 24 hrs by two-fold serial dilution method; conditions: CCARM 3519, 24 h
Staphylococcus aureus [3] = assay: Antibacterial activity against quinolone-resistant Staphylococcus aureus CCARM 3505 after 24 hrs by two-fold serial dilution method; conditions: CCARM 3505, 24 h
Escherichia coli = assay: Antibacterial activity against Escherichia coli 1356 after 24 hrs by two-fold serial dilution method; conditions: Escherichia coli, 1356, 24 h
Staphylococcus aureus [4] = assay: Antibacterial activity against Staphylococcus aureus KCTC 503 after 24 hrs by two-fold serial dilution method; conditions: KCTC 503, 24 h
Staphylococcus aureus [5] = assay: Antibacterial activity against methicillin-resistant Staphylococcus aureus CCARM 3506 after 24 hrs by two-fold serial dilution method; conditions: CCARM 3506, 24 h
Staphylococcus aureus [6] = assay: Antibacterial activity against Staphylococcus aureus KCTC 209 after 24 hrs by two-fold serial dilution method; conditions: KCTC 209, 24 h
Staphylococcus aureus [7] = assay: Antibacterial activity against methicillin-resistant Staphylococcus aureus CCARM 3167 after 24 hrs by two-fold serial dilution method; conditions: CCARM 3167, 24 h

Row | Structure (SMILES) | MIC (Staphylococcus aureus [1]) [µg/mL] | MIC (Staphylococcus aureus [2]) [µg/mL] | MIC (Staphylococcus aureus [3]) [µg/mL] | MIC (Escherichia coli) [µg/mL] | MIC (Staphylococcus aureus [4]) [µg/mL] | MIC (Staphylococcus aureus [5]) [µg/mL] | MIC (Staphylococcus aureus [6]) [µg/mL] | MIC (Staphylococcus aureus [7]) [µg/mL]
1 | Cc1onc(-c2ccccc2)c1C(=O)N[C@@H]1C(=O)N2[C@@H]1SC(C)(C)[C@@H]2C(=O)O [OXACILLIN] | 1 (≈ 2.49 µM) | 1 (≈ 2.49 µM) | 1 (≈ 2.49 µM) | > 64 | 1 (≈ 2.49 µM) | > 64 | 1 (≈ 2.49 µM) | > 64
2 | O=C(COc1ccc(/C=C2\SC(=S)N([C@@H](Cc3c[nH]c4ccccc34)C(=O)O)C2=O)cc1)c1cccc(Br)c1 | 4 (≈ 6.44 µM) | 4 (≈ 6.44 µM) | 4 (≈ 6.44 µM) | > 64 | 4 (≈ 6.44 µM) | 4 (≈ 6.44 µM) | 2 (≈ 3.22 µM) | 4 (≈ 6.44 µM)
3 | O=C(COc1ccc(/C=C2\SC(=S)N([C@@H](Cc3ccccc3)C(=O)O)C2=O)cc1)c1cccc(Cl)c1 | 8 (≈ 14.9 µM) | 4 (≈ 7.43 µM) | 4 (≈ 7.43 µM) | > 64 | 4 (≈ 7.43 µM) | 4 (≈ 7.43 µM) | 4 (≈ 7.43 µM) | 4 (≈ 7.43 µM)
4 | O=C(COc1ccc(/C=C2\SC(=S)N([C@@H](Cc3c[nH]c4ccccc34)C(=O)O)C2=O)cc1)c1ccc(F)cc1 | 4 (≈ 7.13 µM) | 4 (≈ 7.13 µM) | 4 (≈ 7.13 µM) | > 64 | 4 (≈ 7.13 µM) | 4 (≈ 7.13 µM) | 4 (≈ 7.13 µM) | 4 (≈ 7.13 µM)
5 | O=C(COc1ccc(/C=C2\SC(=S)N([C@@H](Cc3ccc(O)cc3)C(=O)O)C2=O)cc1)c1cccc(Br)c1 | 8 (≈ 13.4 µM) | 8 (≈ 13.4 µM) | 8 (≈ 13.4 µM) | > 64 | 8 (≈ 13.4 µM) | 8 (≈ 13.4 µM) | 8 (≈ 13.4 µM) | 8 (≈ 13.4 µM)
6 | COc1ccccc1C(=O)COc1ccc(/C=C2\SC(=S)N([C@@H](Cc3ccccc3)C(=O)O)C2=O)cc1 | 4 (≈ 7.5 µM) | 4 (≈ 7.5 µM) | 4 (≈ 7.5 µM) | > 64 | 4 (≈ 7.5 µM) | 4 (≈ 7.5 µM) | 4 (≈ 7.5 µM) | 4 (≈ 7.5 µM)
7 | COc1ccccc1C(=O)COc1ccc(/C=C2\SC(=S)N([C@@H](Cc3c[nH]c4ccccc34)C(=O)O)C2=O)cc1 | 8 (≈ 14 µM) | 8 (≈ 14 µM) | 8 (≈ 14 µM) | > 64 | 8 (≈ 14 µM) | 8 (≈ 14 µM) | 8 (≈ 14 µM) | 8 (≈ 14 µM)
8 | O=C(COc1ccc(/C=C2\SC(=S)N([C@@H](Cc3ccccc3)C(=O)O)C2=O)cc1)c1ccccc1F | 8 (≈ 15.3 µM) | 4 (≈ 7.67 µM) | 4 (≈ 7.67 µM) | > 64 | 8 (≈ 15.3 µM) | 4 (≈ 7.67 µM) | 4 (≈ 7.67 µM) | 4 (≈ 7.67 µM)
9 | O=C(COc1ccc(/C=C2\SC(=S)N([C@@H](Cc3ccc(O)cc3)C(=O)O)C2=O)cc1)c1ccc(Cl)cc1 | 16 (≈ 28.9 µM) | 16 (≈ 28.9 µM) | 8 (≈ 14.4 µM) | > 64 | 8 (≈ 14.4 µM) | 16 (≈ 28.9 µM) | 8 (≈ 14.4 µM) | 8 (≈ 14.4 µM)
10 | Cc1ccc(C(=O)COc2ccc(/C=C3\SC(=S)N([C@@H](Cc4c[nH]c5ccccc45)C(=O)O)C3=O)cc2)cc1 | 8 (≈ 14.4 µM) | 8 (≈ 14.4 µM) | 4 (≈ 7.19 µM) | > 64 | 4 (≈ 7.19 µM) | 8 (≈ 14.4 µM) | 4 (≈ 7.19 µM) | 4 (≈ 7.19 µM)
11 | O=C(COc1ccc(/C=C2\SC(=S)N([C@@H](Cc3ccc(O)cc3)C(=O)O)C2=O)cc1)c1cccc(Cl)c1 | 8 (≈ 14.4 µM) | 8 (≈ 14.4 µM) | 8 (≈ 14.4 µM) | > 64 | 8 (≈ 14.4 µM) | 8 (≈ 14.4 µM) | 8 (≈ 14.4 µM) | 8 (≈ 14.4 µM)
12 | O=C(COc1ccc(/C=C2\SC(=S)N([C@@H](Cc3ccc(O)cc3)C(=O)O)C2=O)cc1)c1ccccc1 | 32 (≈ 61.6 µM) | 32 (≈ 61.6 µM) | 32 (≈ 61.6 µM) | > 64 | 32 (≈ 61.6 µM) | 32 (≈ 61.6 µM) | 32 (≈ 61.6 µM) | 32 (≈ 61.6 µM)
13 | O=C(COc1ccc(/C=C2\SC(=S)N([C@@H](Cc3ccccc3)C(=O)O)C2=O)cc1)c1ccccc1Br | 8 (≈ 13.7 µM) | 8 (≈ 13.7 µM) | 4 (≈ 6.87 µM) | > 64 | 8 (≈ 13.7 µM) | 8 (≈ 13.7 µM) | 4 (≈ 6.87 µM) | 4 (≈ 6.87 µM)
14 | O=C(COc1ccc(/C=C2\SC(=S)N([C@@H](Cc3ccccc3)C(=O)O)C2=O)cc1)c1cccc(Br)c1 | 4 (≈ 6.87 µM) | 4 (≈ 6.87 µM) | 4 (≈ 6.87 µM) | > 64 | 4 (≈ 6.87 µM) | 4 (≈ 6.87 µM) | 4 (≈ 6.87 µM) | 4 (≈ 6.87 µM)
15 | O=C(COc1ccc(/C=C2\SC(=S)N([C@@H](Cc3ccc(O)cc3)C(=O)O)C2=O)cc1)c1ccc(Cl)cc1Cl | 8 (≈ 13.6 µM) | 8 (≈ 13.6 µM) | 8 (≈ 13.6 µM) | > 64 | 4 (≈ 6.8 µM) | 8 (≈ 13.6 µM) | 4 (≈ 6.8 µM) | 8 (≈ 13.6 µM)
16 | CCn1cc(C(=O)O)c(=O)c2cc(F)c(N3CCNCC3)cc21 [NORFLOXACIN] | 2 (≈ 6.26 µM) | > 64 | > 64 | 16 (≈ 50.1 µM) | 2 (≈ 6.26 µM) | 4 (≈ 12.5 µM) | 2 (≈ 6.26 µM) | 8 (≈ 25.1 µM)
17 | COc1ccccc1C(=O)COc1ccc(/C=C2\SC(=S)N([C@@H](Cc3ccc(O)cc3)C(=O)O)C2=O)cc1 | 32 (≈ 58.2 µM) | 8 (≈ 14.6 µM) | 8 (≈ 14.6 µM) | > 64 | 8 (≈ 14.6 µM) | 8 (≈ 14.6 µM) | 8 (≈ 14.6 µM) | 8 (≈ 14.6 µM)
18 | O=C(COc1ccc(/C=C2\SC(=S)N([C@@H](Cc3ccccc3)C(=O)O)C2=O)cc1)c1ccccc1 | 8 (≈ 15.9 µM) | 4 (≈ 7.94 µM) | 8 (≈ 15.9 µM) | > 64 | 8 (≈ 15.9 µM) | 4 (≈ 7.94 µM) | 4 (≈ 7.94 µM) | 8 (≈ 15.9 µM)
19 | O=C(COc1ccc(/C=C2\SC(=S)N([C@@H](Cc3c[nH]c4ccccc34)C(=O)O)C2=O)cc1)c1ccc(Cl)cc1Cl | 8 (≈ 13.1 µM) | 8 (≈ 13.1 µM) | 4 (≈ 6.54 µM) | > 64 | 8 (≈ 13.1 µM) | 8 (≈ 13.1 µM) | 4 (≈ 6.54 µM) | 4 (≈ 6.54 µM)
20 | O=C(COc1ccc(/C=C2\SC(=S)N([C@@H](Cc3c[nH]c4ccccc34)C(=O)O)C2=O)cc1)c1ccc(Br)cc1 | 8 (≈ 12.9 µM) | 8 (≈ 12.9 µM) | 8 (≈ 12.9 µM) | > 64 | 4 (≈ 6.44 µM) | 8 (≈ 12.9 µM) | 4 (≈ 6.44 µM) | 8 (≈ 12.9 µM)
21 | COc1cccc(C(=O)COc2ccc(/C=C3\SC(=S)N([C@@H](Cc4ccccc4)C(=O)O)C3=O)cc2)c1 | 8 (≈ 15 µM) | 8 (≈ 15 µM) | 8 (≈ 15 µM) | > 64 | 8 (≈ 15 µM) | 8 (≈ 15 µM) | 8 (≈ 15 µM) | 8 (≈ 15 µM)
22 | O=C(COc1ccc(/C=C2\SC(=S)N([C@@H](Cc3ccccc3)C(=O)O)C2=O)cc1)c1ccc(Br)cc1 | 8 (≈ 13.7 µM) | 8 (≈ 13.7 µM) | 4 (≈ 6.87 µM) | > 64 | 8 (≈ 13.7 µM) | 8 (≈ 13.7 µM) | 8 (≈ 13.7 µM) | 4 (≈ 6.87 µM)
23 | Cc1ccc(C(=O)COc2ccc(/C=C3\SC(=S)N([C@@H](Cc4ccccc4)C(=O)O)C3=O)cc2)cc1 | 8 (≈ 15.5 µM) | 8 (≈ 15.5 µM) | 4 (≈ 7.73 µM) | > 64 | 8 (≈ 15.5 µM) | 8 (≈ 15.5 µM) | 8 (≈ 15.5 µM) | 4 (≈ 7.73 µM)
